Columns and labels:
[1] = molecular target: T1, human SCD1 (Homo sapiens, UniProt O00767); assay: Growth inhibition of yeast strain expressing human SCD1 as sole desaturase (OLE1 deleted), OD600 readout; assay type: cell-based; conditions: yeast strain expressing human SCD1 as sole desaturase; growth (OD600) after 40 h at 30° C.; read-out: SCD1 IC50
T1 construct: expressed in transfected cells; host or cells: yeast strain with OLE1 deleted, plasmid-borne human SCD1 (selected in SD-Ura)
T1 sequence (O00767 1-359): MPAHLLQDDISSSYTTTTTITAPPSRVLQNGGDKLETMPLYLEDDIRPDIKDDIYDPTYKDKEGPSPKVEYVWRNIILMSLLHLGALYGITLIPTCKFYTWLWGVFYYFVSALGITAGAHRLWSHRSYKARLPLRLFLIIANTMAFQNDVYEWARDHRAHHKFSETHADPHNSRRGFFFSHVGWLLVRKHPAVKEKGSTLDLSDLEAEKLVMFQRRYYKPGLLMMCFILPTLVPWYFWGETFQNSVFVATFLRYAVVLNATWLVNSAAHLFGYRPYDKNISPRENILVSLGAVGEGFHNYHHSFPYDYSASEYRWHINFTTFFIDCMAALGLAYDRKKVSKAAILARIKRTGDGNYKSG

[2] = molecular target: T2, human SCD5 (Homo sapiens, UniProt Q86SK9); assay: Growth inhibition of yeast strain expressing human SCD5 as sole desaturase (OLE1 deleted), OD600 readout; assay type: cell-based; conditions: yeast strain expressing human SCD5 as sole desaturase; growth (OD600) after 40 h at 30° C.; read-out: SCD5 IC50
T2 construct: expressed in transfected cells; host or cells: yeast strain with OLE1 deleted, plasmid-borne human SCD5 (selected in SD-Ura)
T2 sequence (Q86SK9 1-330): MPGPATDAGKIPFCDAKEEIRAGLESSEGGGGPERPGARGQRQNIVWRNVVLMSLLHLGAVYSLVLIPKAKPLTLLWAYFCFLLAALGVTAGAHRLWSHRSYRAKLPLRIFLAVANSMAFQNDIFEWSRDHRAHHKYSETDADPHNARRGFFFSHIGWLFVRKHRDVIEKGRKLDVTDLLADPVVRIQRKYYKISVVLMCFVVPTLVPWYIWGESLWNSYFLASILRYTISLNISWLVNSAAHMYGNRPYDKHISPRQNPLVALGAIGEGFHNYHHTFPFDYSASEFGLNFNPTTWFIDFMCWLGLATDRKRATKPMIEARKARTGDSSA

Row | SMILES | IC50 [1] | IC50 [2]
1 | Cn1nc(C(=O)Nc2ccc(Cc3ccc(F)c(C#N)c3)cn2)ccc1=O [Compound 564] | 1400 nM | 62 nM
2 | Cn1cc(C(=O)Nc2ccc(Cc3c(F)cccc3F)cn2)ccc1=O [Compound 566] | > 45000 nM | 5600 nM
3 | Cn1cc(NC(=O)c2ccc(COc3ccccc3)cn2)ccc1=O [Compound 569] | > 45000 nM | 1200 nM
4 | Cn1nc(C(=O)Nc2ccc(Cc3ccc(F)c(F)c3Cl)cn2)ccc1=O [Compound 571] | 520 nM | 10 nM
5 | Cn1cc(C(=O)Nc2ccc(Cc3ccc(F)c(F)c3Cl)cn2)ccc1=O [Compound 572] | 17 nM | 10 nM
6 | Cn1nc(C(=O)Nc2ccc(Oc3cc(F)cc(F)c3)cn2)ccc1=O [Compound 573] | > 45000 nM | 2300 nM
7 | Cn1nc(C(=O)Nc2ncc(Cc3ccc(F)c(F)c3)cc2F)ccc1=O [Compound 577] | 23000 nM | 6400 nM
8 | Cn1nc(C(=O)Nc2ccc(COc3ccccc3)cn2)ccc1=O [Compound 584] | > 45000 nM | 1200 nM
9 | Cn1nc(C(=O)Nc2ccc(Oc3cc(F)cc(Cl)c3)cn2)ccc1=O [Compound 586] | > 45000 nM | 1300 nM
10 | Cn1cc(C(=O)Nc2ccc(Oc3ccc(F)c(F)c3)cn2)ccc1=O [Compound 587] | 17000 nM | 1100 nM
11 | Cn1cc(C(=O)Nc2ccc(Oc3cc(F)cc(F)c3)cn2)ccc1=O [Compound 588] | 6200 nM | 530 nM
12 | Cn1cc(C(=O)Nc2ccc(Oc3cc(F)cc(Cl)c3)cn2)ccc1=O [Compound 589] | 2300 nM | 150 nM
13 | CCn1cc(C(=O)Nc2ccc(Cc3cc(F)cc(C#N)c3)cn2)cn1 [Compound 594] | 3100 nM | 120 nM
14 | Cc1ncc(C(=O)Nc2ccc(Cc3cc(F)cc(C#N)c3)cn2)cn1 [Compound 595] | 35000 nM | 420 nM
15 | COc1cc(C(=O)Nc2ccc(Cc3cc(F)cc(F)c3)cn2)nn(C)c1=O [Compound 596] | 1080 nM | 26 nM
16 | COc1cc(Cc2ccc(NC(=O)c3ccc(=O)n(C)n3)nc2)ccc1F [Compound 597] | 2600 nM | 70 nM
17 | CN1N=C(C(=O)Nc2ccc(COc3ccc(F)c(F)c3)cn2)CCC1=O [Compound 598] | 39000 nM | 150 nM
18 | Cn1nc(C(=O)Nc2ccc(COc3ccc(F)cc3)cn2)ccc1=O [Compound 599] | > 45000 nM | 940 nM
19 | Cn1cc(C(=O)Nc2ccc(COc3ccccc3)cn2)ccc1=O [Compound 600] | 28000 nM | 1600 nM
20 | Cc1cc(C(=O)Nc2ccc(Cc3cc(F)cc(C#N)c3)cn2)nc(C)n1 [Compound 606] | 610 nM | 170 nM
21 | CN1N=C(C(=O)Nc2ccc(COc3ccc(F)cc3F)cn2)CCC1=O [Compound 607] | > 45000 nM | 580 nM
22 | Cc1cc(C(=O)Nc2ccc(Cc3cc(F)cc(C#N)c3)cn2)nn(C)c1=O [Compound 609] | > 45000 nM | 284 nM
23 | Cc1cc(C(=O)Nc2ccc(Cc3ccc(F)c(C#N)c3)cn2)nn(C)c1=O [Compound 610] | 3400 nM | 600 nM
24 | COc1cc(Cc2ccc(NC(=O)c3ccc(=O)n(C)c3)nc2)ccn1 [Compound 613] | 3400 nM | 600 nM
25 | Cn1nc(C(=O)Nc2ccc(Cc3cccc(C#N)c3F)cn2)ccc1=O [Compound 614] | > 45000 nM | 2500 nM
26 | Cn1nc(C(=O)Nc2ccc(COc3ccccc3Cl)cn2)ccc1=O [Compound 615] | > 45000 nM | 79 nM
27 | Cn1cc(C(=O)Nc2ccc(Cc3ccc(Cl)c(C#N)c3)cn2)ccc1=O [Compound 617] | 220 nM | 39 nM
28 | Cn1cc(C(=O)Nc2ccc(Cc3cc(Cl)cc(C#N)c3)cn2)ccc1=O [Compound 618] | 510 nM | 22 nM
29 | Cn1ccc(C(=O)Nc2ccc(Cc3cc(F)cc(C#N)c3)cn2)cc1=O [Compound 620] | 200 nM | 200 nM

Now from value to molecule:

Row | IC50 [1] | IC50 [2] | SMILES
30 | 10 nM | 10 nM | O=C(Nc1ccc(Cc2cc(F)cc(F)c2)cn1)c1ncc(CO)cn1 [Compound 559]
31 | 250 nM | 22 nM | Cn1nc(C(=O)Nc2ccc(Cc3cccc(F)c3)cn2)cc1CO [Compound 560]
32 | 6700 nM | 200 nM | Cn1nc(C(=O)Nc2ccc(Cc3cccc(C(F)F)c3)cn2)ccc1=O [Compound 561]
33 | 1000 nM | 10 nM | Cn1nc(C(=O)Nc2ccc(Cc3cc(F)cc(C(F)F)c3)cn2)ccc1=O [Compound 562]
34 | 1100 nM | 570 nM | N#Cc1cc(C(=O)Nc2ccc(Cc3ccc(F)c(F)c3)cn2)ccn1 [Compound 563]
35 | 2700 nM | 20 nM | Cn1cc(C(=O)Nc2ccc(Cc3cc(F)ccc3F)cn2)ccc1=O [Compound 565]
36 | 10 nM | 10 nM | CNC(=O)c1ccnc(NC(=O)c2ccc(Cc3cccc(F)c3)cn2)c1 [Compound 567]
37 | 3900 nM | 880 nM | C=Cc1cnc(C(=O)Nc2ccc(Cc3ccc(F)c(F)c3)cn2)nc1 [Compound 568]
38 | 10000 nM | 430 nM | COC(=O)c1ccnc(C(=O)Nc2ccc(Cc3cccc(F)c3)cn2)c1 [Compound 570]
39 | 370 nM | 10 nM | Cn1nc(C(=O)Nc2ccc(Cc3ccc(F)c(C(F)F)c3)cn2)ccc1=O [Compound 575]
40 | > 45000 nM | 400 nM | N#Cc1ccc(C(=O)Nc2ccc(Cc3ccc(F)c(F)c3)cn2)nn1 [Compound 576]
41 | > 45000 nM | 370 nM | CNC(=O)c1ccnc(C(=O)Nc2ccc(Cc3cccc(F)c3)cn2)c1 [Compound 578]
42 | > 45000 nM | 740 nM | N#Cc1cncc(C(=O)Nc2ccc(Cc3cccc(F)c3)cn2)c1 [Compound 579]
43 | 19 nM | 10 nM | O=C(Nc1ccc(Cc2cc(F)cc(F)c2)cn1)c1cncc(CO)c1 [Compound 580]
44 | 680 nM | 62 nM | Cc1ncc(C(=O)Nc2ccc(Cc3cc(F)cc(F)c3)cn2)cn1 [Compound 581]
45 | 4300 nM | 280 nM | CCn1cc(C(=O)Nc2ccc(Cc3ccc(F)c(F)c3)cn2)ccc1=O [Compound 582]
46 | > 45000 nM | 380 nM | O=C(Nc1ccc(Cc2ccc(F)c(F)c2)cn1)c1ccc(Cl)nn1 [Compound 585]

Row | IC50 [1] | IC50 [2] | SMILES
47 | 30000 nM | 470 nM | Cn1ccc(C(=O)Nc2ccc(Cc3cc(F)cc(F)c3)cn2)nc1=O [Compound 590]
48 | 2200 nM | 18 nM | N#Cc1cnc(C(=O)Nc2ccc(Cc3ccc(F)c(F)c3)cn2)cn1 [Compound 591]
49 | > 45000 nM | 276 nM | CNC(=O)c1ccc(C(=O)Nc2ccc(Cc3cccc(Cl)c3)cn2)cn1 [Compound 592]
50 | > 45000 nM | 430 nM | CNC(=O)c1ccc(C(=O)Nc2ccc(Cc3ccc(F)c(F)c3)cn2)cn1 [Compound 593]
51 | > 45000 nM | 34 nM | O=C(Nc1ccc(Cc2cc(F)cc(F)c2)cn1)c1cnc(Cl)c(Cl)c1 [Compound 601]
52 | > 45000 nM | 66 nM | O=C(Nc1ccc(Cc2ccc(F)c(F)c2)cn1)c1cnc(Cl)cn1 [Compound 602]
53 | 10 nM | 10 nM | O=C(Nc1ccc(Cc2ccc(F)c(F)c2)cn1)c1ncc(CO)cn1 [Compound 603]
54 | 37 nM | 42 nM | CC(O)c1cnc(C(=O)Nc2ccc(Cc3ccc(F)c(F)c3)cn2)nc1 (stereo not drawn) [Compound 604]
55 | 280 nM | 320 nM | O=C(Nc1ccc(Cc2cccc(Cl)c2)cn1)c1ccc([C@@H](O)CO)nc1 [Compound 605]
56 | 910 nM | 27 nM | N#Cc1ncc(C(=O)Nc2ccc(Cc3cc(F)cc(F)c3)cn2)cc1Cl [Compound 608]
57 | > 45000 nM | 371 nM | O=C(Nc1ccc(Cc2cccc(F)c2)cn1)c1ncc(Cl)cc1F [Compound 611]
58 | 4400 nM | 1200 nM | N#Cc1cc(C(=O)Nc2ccc(Cc3cc(F)cc(F)c3)cn2)cnc1C#N [Compound 612]
59 | 522 nM | 10 nM | Cc1cc(C(=O)Nc2ccc(Cc3cc(F)cc(F)c3)cn2)cnc1C#N [Compound 616]
60 | 28000 nM | 150 nM | Cc1cc(C(=O)Nc2ccc(Cc3cc(F)cc(F)c3)cn2)cnc1Cl [Compound 619]
61 | 35 nM | 25 nM | O=C(Nc1ccc(Cc2ccc(F)c(F)c2)cn1)c1ccnnc1 [Compound 621]
62 | 23 nM | 16 nM | O=C(Nc1ccc(Cc2cc(F)cc(F)c2)cn1)c1ccnnc1 [Compound 622]
63 | 232 nM | 19 nM | Cc1cc(C(=O)Nc2ccc(Cc3cccc(F)c3)cn2)cn(C)c1=O [Compound 623]
